The source of these data is article PMC7567103 (Nature Communications, 2020).

Test [1] concerns the target T1, GHRHR(23-405)-15AA-LgBiT-2MBP (Homo sapiens, UniProt Q02643).
T1 construct: 24 h after transfection with GHRHR(23-423), GHRHR(23-405), GHRHR(23-405)-LgBiT-2MBP, or HA-Flag-GHRHR (WT and mutants); HA signal peptide (replaces native signal M1-G22) (N); expressed in transfected cells; host or cells: HEK 293 T
T1 sequence (Q02643 23-405): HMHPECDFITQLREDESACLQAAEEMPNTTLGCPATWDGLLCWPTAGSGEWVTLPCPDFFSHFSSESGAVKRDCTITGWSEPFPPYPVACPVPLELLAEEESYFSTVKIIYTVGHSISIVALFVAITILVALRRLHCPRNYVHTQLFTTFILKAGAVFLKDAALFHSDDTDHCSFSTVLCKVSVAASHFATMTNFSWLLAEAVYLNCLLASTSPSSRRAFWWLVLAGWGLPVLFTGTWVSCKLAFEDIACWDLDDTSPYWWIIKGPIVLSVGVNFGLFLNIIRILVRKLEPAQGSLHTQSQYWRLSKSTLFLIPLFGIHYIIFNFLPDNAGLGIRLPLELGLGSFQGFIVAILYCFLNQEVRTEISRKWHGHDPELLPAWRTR
Put plainly: whole cell binding, competitive inhibition of 125I-GHRH (Supplementary Fig. 2c). The following applies: competition with 80 pM 125I-GHRH; whole HEK 293T cells, RT 3 h; mean ± SEM, n = 7-8. As for the experimental part: (§1) This assay was conducted in 96-well Iso-plates (PerkinElmer) coated with poly-D-lysine hydrobromide (Sigma-Aldrich). Twenty-four hour after transfection with GHRHR(23-423) or GHRHR(23-405)-LgBiT-2MBP, HEK 293 T cells were washed twice, and incubated with blocking buffer (DMEM medium supplemented with 33 mM HEPES, and 0.1% (w/v) BSA, pH 7.4) for 2 h at 37 °C. Then, radiolabeled ^125I-GHRH (80 pM, Phoenix Biotech) and seven decreasing concentrations of unlabeled peptide (10 μM, […]) were added and competitively reacted with the cells in binding buffer (PBS supplemented with 10% (w/v) BSA, pH 7.4) at RT for 3 h. Cells were washed with ice-cold PBS and lysed by 50 μL lysis buffer (PBS supplemented with 20 mM Tris-HCl and 1% (v/v) Triton X-100, pH 7.4). Finally, 150 μL of scintillation cocktail (OptiPhase SuperMix, PerkinElmer) was employed and radioactivity (counts per minute) read in a scintillation counter (MicroBeta[2] plate counter, PerkinElmer).
(§2) 93 of transfection. Data are normalized by the WT receptor and fitted with a three-
(§3) 94 parameter logistic equation. All values are means ± S.E.M. of at least three […]
(§4) Binding affinity is quantified by
(§5) 97 reduction of radioactivity (counts per minute, CPM) and normalized to the […]
(§6) 231 Binding data were analyzed using a three-parameter logistic equation to […]
(§7) 234 determine statistical difference. *P<0.01; ND, not determined.

Test [2] addresses T2, GHRHR(23-423) (WT) (Homo sapiens, UniProt Q02643).
T2 construct: 24 h after transfection with GHRHR(23-423), GHRHR(23-405), GHRHR(23-405)-LgBiT-2MBP, or HA-Flag-GHRHR (WT and mutants); HA signal peptide (replaces native signal M1-G22) (N); expressed in transfected cells; host or cells: HEK 293 T
T2 sequence (Q02643 23-423): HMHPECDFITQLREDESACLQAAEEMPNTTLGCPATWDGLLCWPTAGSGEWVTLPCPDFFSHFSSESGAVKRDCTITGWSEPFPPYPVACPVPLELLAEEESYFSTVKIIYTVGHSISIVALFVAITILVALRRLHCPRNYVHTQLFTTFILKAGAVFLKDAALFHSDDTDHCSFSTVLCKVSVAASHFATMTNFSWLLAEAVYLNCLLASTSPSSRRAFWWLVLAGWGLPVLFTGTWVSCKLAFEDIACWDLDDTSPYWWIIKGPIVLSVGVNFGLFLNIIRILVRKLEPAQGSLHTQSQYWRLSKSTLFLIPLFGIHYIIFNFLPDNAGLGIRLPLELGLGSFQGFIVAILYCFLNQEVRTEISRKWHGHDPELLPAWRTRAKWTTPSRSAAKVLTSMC
The description is as above. The settings on record: competition with 80 pM 125I-GHRH; whole HEK 293T cells, RT 3 h; mean ± SEM, n = 7-8. Here is the method: as §1, §2, §3, §4, §5, §6, §7

Usually IC50 stands for the midpoint of a concentration-inhibition curve. The low end stands for higher potency, the high end for lower potency.

As for `CC[C@H](C)[C@H](NC(=O)[C@H](C)NC(=O)[C@H](CC(=O)O)NC(=O)[C@H](C)NC(=O)[C@@H](N)Cc1ccc(O)cc1)C(=O)N[C@@H](Cc1ccccc1)C(=O)N[C@H](C(=O)N[C@@H](CC(N)=O)C(=O)N[C@@H](CO)C(=O)N[C@@H](Cc1ccc(O)cc1)C(=O)N[C@@H](CCCNC(=N)N)C(=O)N[C@@H](CCCCN)C(=O)N[C@H](C(=O)N[C@@H](CC(C)C)C(=O)NCC(=O)N[C@@H](CCC(N)=O)C(=O)N[C@@H](CC(C)C)C(=O)N[C@@H](CO)C(=O)N[C@@H](C)C(=O)N[C@@H](CCCNC(=N)N)C(=O)N[C@@H](CCCCN)C(=O)N[C@@H](CC(C)C)C(=O)N[C@@H](CC(C)C)C(=O)N[C@@H](CCC(N)=O)C(=O)N[C@@H](CC(=O)O)C(=O)N[C@H](C(=O)N[C@@H](CCSC)C(=O)N[C@@H](CO)C(=O)N[C@@H](CCCNC(=N)N)C(=O)N[C@@H](CCC(N)=O)C(=O)N[C@@H](CCC(N)=O)C(=O)NCC(=O)N[C@@H](CCC(=O)O)C(=O)N[C@@H](CO)C(=O)N[C@@H](CC(N)=O)C(=O)N[C@@H](CCC(N)=O)C(=O)N[C@@H](CCC(=O)O)C(=O)N[C@@H](CCCNC(=N)N)C(=O)NCC(=O)N[C@@H](C)C(=O)N[C@@H](CCCNC(=N)N)C(=O)N[C@@H](C)C(=O)N[C@@H](CCCNC(=N)N)C(=O)N[C@@H](CC(C)C)C(N)=O)[C@@H](C)CC)C(C)C)[C@@H](C)O` [GHRH, Growth hormone-releasing hormone], the IC50 was 0.879 nM in test [1] and 2.75 nM in test [2].
